# Read-outs that look alike come from different tables or passages of the source.
# Tests used:
# BRIN-BD11 cells [1] = assay type: cell-based, rat; conditions: for Insulin secretion (ng/10^6 cells/20 min), Control: addition alone without peptide: verapamil 50 μM or KCl 30 mM; for Insulin-releasing action in the presence of verapamil (in words): 50 μM verapamil, calcium channel blocker; for Insulin-releasing action in cells depolarised with KCl (in words): 30 mM KCl; for Insulin secretion (ng/10^6 cells/20 min): 8 observations
# Protocol: (§1) Culture of insulin-secreting cells: Clonal rat insulin-secreting BRIN-BD11 cells were cultured in RPMI-1640 tissue culture medium containing 10% (v/v) fetal calf serum, 1% (v/v) antibiotics (100 U/ml penicillin, 0.1 mg/ml streptomycin) and 11.1 mM glucose. The production and characterisation of BRIN-BD11 cells are described elsewhere. Cells were maintained in sterile tissue culture flasks (Corning, Glass Works, UK) at 37° C. in an atmosphere of 5% CO2 and 95% air using LEEC incubator (Laboratory Technical Engineering, Nottingham, UK). In three experimental series using purified peptides from Agalychnis calcarifer, Bombina variegata and Rana saharica cells were cultured overnight with 25 μM forskolin, 10 nM PMA or 0.1 μg/ml pertussis toxin prior to acute tests.
# Acute insulin release studies: Insulin release from BRIN-BD11 cells was determined using cell monolayers [McClenaghan N H, Barnett C R, Ah-Sing E, Abdel-Wahab Y H, O'Harte F P, Yoon T W, Swanston-Flatt S K and Flatt P R 1996 Characterization of a novel glucose-responsive insulin-secreting cell line, BRIN-BD11, produced by electrofusion. Diabetes 45 1132-1140]. The cells were harvested with the aid of trypsin/EDTA (Gibco), seeded into 24-multiwell plates (Nunc, Rosklide, Denmark) at a density of […] per well, and allowed to attach overnight. Prior to acute test, cells were preincubated for 40 min at 37° C. in a 1.0 ml Krebs Ringer bicarbonate buffer (115 mM NaCl, 4.7 mM KCl, 1.28 MM CaCl2, 1.2 MM KH2PO4, 1.2 mM MgSO4, 10 mM NaHCO3, 5 g/l bovine serum albumin, pH 7.4) supplemented with 1.1 mM glucose. Test incubations were performed for 20 min at 37° C. using the same buffer supplemented with 5.6 mM glucose in the absence (control) and presence of various venom fractions, peaks (equivalent to approx. 25 μl dried HPLC fraction) or test agents as indicated in the Figures. Cell viability after 20 min test incubations was assessed by modified neutral red assay [Hunt S M, Chrzanowska C, Barnnett C R, Brand H N and Fawell J K 1987 A comparison of in vitro cytotoxicity assays and their application to water samples. Alternatives to Laboratory Animals 15 20-29]. After incubation, aliquots of buffer were removed and stored at −20° C. for insulin radiomnimmunoassay [Flatt P R. and Bailey C J 1981 Abnormal plasma glucose and insulin responses in heterozygous lean (ob/+) mice. Diabetologia 20 573-577].
# BRIN-BD11 cells [2] = assay: Acute insulin release from BRIN-BD11 cells cultured overnight with forskolin, PMA or pertussis toxin; assay type: cell-based, rat; conditions: acute test at 5.6 mM glucose; for Stimulatory effect on insulin secretion in cells cultured overnight with PMA: 10 nM PMA overnight (protein kinase C pathway); for Stimulatory effect on insulin secretion in cells cultured overnight with pertussis toxin: 0.1 μg/ml pertussis toxin overnight (G-protein pathway); for Stimulatory effect on insulin secretion in cells cultured overnight with forskolin: 25 μM forskolin overnight (desensitised cyclic AMP-protein kinase A pathway)
# Protocol: FIG. 8 illustrates the dependence of the stimulatory effects of 1653.2 Da purified peptide (peak 1.10) from Agalychnis calcarifer on intracellular pathways mediated by protein kinase A (forskolin), protein kinase C (PMA) or pertussis toxin-sensitive G-proteins. Legend: Acute effects of the 13 amino acid 1653.2 Da purified peptide (peak 1.10) from Agalychnis calcarifer on forskolin and PMA on insulin secretion from BRIN-BD11 cells cultured overnight in the absence (control) and presence of 25 μM forskolin, 10 nM PMA or 0.1 μg/ml pertussis toxin. Acute incubations were performed at 5.6 mM glucose. Values are the mean ±SEM for 8 separate observations. ***P<0.001 compared with 5.6 mM glucose alone under same culture conditions. ^ΔΔΔp<0.001 compared with respective test reagent following control culture.
# FIG. 9 illustrates the dependence of the stimulatory effects of 1641.7 Da, 1662.6 Da, 1619.8 Da and 1650.5 Da purified peptides (peaks 21, 22, 23 and 24) from Bombina variegata on intracellular pathways mediated by protein kinase A (forskolin), protein kinase C (PMA) or pertussis toxin-sensitive G-proteins. Legend: Acute effects of 1641.7, 1662.6, 1619.8 and 1650.5 Da purified peptides (peaks 21, 22, 23 and 24) from Bombina variegata on forskolin and PMA on insulin secretion from BRIN-BD11 cells cultured overnight in the absence (control) and presence of 25 μM forskolin, 10 nM PMA or 0.1 μg/ml pertussis toxin. Acute incubations were performed at 5.6 mM glucose. Values are the mean ±SEM for 8 separate observations. **P<0.001 compared with 5.6 mM glucose alone under same culture conditions. ^ΔP<0.001 compared with respective test reagent following control culture.
# FIG. 10 illustrates the dependence of the stimulatory effects of 4920.4 Da and 4801.2 Da purified peptides (peaks 5.1 and 5.4) from Rana saharica on intracellular pathways mediated by protein kinase A (forskolin), protein kinase C (PMA) or pertussis toxin-sensitive G-proteins. Legend: Acute effects of 4920.4 and 4801.2 Da purified peptides (peaks 5.1 and 5.4) from Rana saharica on forskolin and PMA on insulin secretion from BRIN-BD11 cells cultured overnight in the absence (control) and presence of 25 μM forskolin, 10 nM PMA or […] pertussis toxin. Acute incubations were performed at 5.6 mM glucose. Values are the mean ±SEM for 8 separate observations. ***P<0.001 compared with 5.6 mM glucose alone under same culture conditions. ^ΔΔP<0.001 compared with respective test reagent following control culture.
# as §1
# Acute insulin release studies: Insulin release from BRIN-BD11 cells was determined using cell monolayers [McClenaghan N H, Barnett C R, Ah-Sing E, Abdel-Wahab Y H, O'Harte F P, Yoon T W, Swanston-Flatt S K and Flatt P R 1996 Characterization of a novel glucose-responsive insulin-secreting cell line, BRIN-BD11, produced by electrofusion. Diabetes 45 1132-1140]. The cells were harvested with the aid of trypsin/EDTA (Gibco), seeded into 24-multiwell plates (Nunc, Rosklide, Denmark) at a density of […] per well, and allowed to attach overnight. […]
# [3] = peptides from Phyllomedusa trinitatis, 5.6 mM glucose, no-peptide control 1.47 ± 0.04
# [4] = peptides from Rana saharica, 5.6 mM glucose, mean ± SEM, 3 observations, no-peptide control 1.87 ± 0.06
# [5] = peptides from Agalychnis litodryas, 5.6 mM glucose, mean ± SEM, 3 observations, no-peptide control 1.95 ± 0.16
# [6] = Table 10, no addition, 5.6 mM glucose, control 1.69 ± 0.17
# [7] = Table 10, peptide plus KCl (30 mM), 5.6 mM glucose
# [8] = Table 10, peptide plus verapamil (50 μM), 5.6 mM glucose
compound,measurement,setting,value
"[Cl-].[K+] [KCl, reference compound]","Insulin secretion (ng/10^6 cells/20 min), Control","BRIN-BD11 cells [1]; Table 8, 5.6 mM glucose",5.32 ± 0.38 ΔΔΔ ng/10^6 cells/20 min
same,"Insulin secretion (ng/10^6 cells/20 min), Control","BRIN-BD11 cells [1]; Table 9, 5.6 mM glucose",5.33 ± 0.38ΔΔΔ ng/10^6 cells/20 min
same,"Insulin secretion (ng/10^6 cells/20 min), Control","BRIN-BD11 cells [1]; Table 10, 5.6 mM glucose",5.33 ng/10^6 cells/20 min
"CCCCCCCCCCCCCC(=O)O[C@@H]1[C@@H](C)[C@@]2(O)[C@@H](C=C(CO)C[C@]3(O)C(=O)C(C)=C[C@@H]23)[C@@H]2C(C)(C)[C@]12OC(C)=O [PMA, reference compound]",Stimulatory effect on insulin secretion in cells cultured overnight with PMA,BRIN-BD11 cells [2],abolition
"ALSILRGLEKLAKMGIALTNCKATKKC [Peptide 3.8, 2873.5 Da peptide from Rana palustris, 46% ID to Brevinin-1]",Insulin release (ng/10^6 cells/20 mins),"BRIN-BD11 cells [1]; peptides from Rana palustris, 5.6 mM glucose, no-peptide control 1.467 ± 0.04",2.48 ± 0.44 ng/10^6 cells/20 mins
"ALWKDILKNVGKAAGKAVLNTVTDMVNQ [Peptide 2.10, peptide from Phyllomedusa trinitatis, 100% ID to Dermaseptin B IV precursor]",Insulin release (ng/10^6 cells/20 mins),BRIN-BD11 cells [1]; [3],2.356 ± 0.34 ng/10^6 cells/20 mins
AVITGACERDVQCGGGTCCAVSLI . . . [Peptide 4.23],Insulin release (ng/10^6 cells/20 mins),BRIN-BD11 cells [1]; [4],4.25 ± 0.17 ng/10^6 cells/20 mins
"AVWKDFLKNIGKAAGKAVLNSVTDMVNE [Peptide 2.9, 3020.0 Da peptide from Agalychnis litodryas, 79% ID to Dermaseptin B IV precursor]",Insulin release (ng/10^6 cells/20 mins),BRIN-BD11 cells [1]; [5],7.46 ± 0.08 ng/10^6 cells/20 mins
"FLPIIAGVAAKVFPKIFCAISKKC [Peptide 4.1, peptide from Rana pipiens identical to pipinin-1]",Insulin release (ng/10^6 cells/20 mins),"BRIN-BD11 cells [1]; peptides from Rana pipiens, 5.6 mM glucose, mean ± SEM, 3 observations, no-peptide control 2.76 ± 0.13",4.15 ± 0.01 ng/10^6 cells/20 mins
"FLPLLAGLAANFLPKIFCKITRKC [Peptide 8.3, peptide from Rana saharica matching Brevinin-1E]",Insulin release (ng/10^6 cells/20 mins),BRIN-BD11 cells [1]; [4],3.53 ± 0.06 ng/10^6 cells/20 mins
"GIFSKFGRKKIKNLLISGLKNVGKEVGMDVVRTGIDIAGCKIKGEC [Peptide 5.1, peptide from Rana saharica, 98% ID to Esculentin-1]",Insulin-releasing action in the presence of verapamil (in words),BRIN-BD11 cells [1],not inhibited
same,Insulin-releasing action in cells depolarised with KCl (in words),BRIN-BD11 cells [1],clearly evident
same,Insulin secretion (ng/10^6 cells/20 min),BRIN-BD11 cells [1]; [6],2.96 ± 0.32 ng/10^6 cells/20 min
same,Insulin secretion (ng/10^6 cells/20 min),BRIN-BD11 cells [1]; [7],10.11 ± 0.81ΔΔΔ*** ng/10^6 cells/20 min
same,Insulin secretion (ng/10^6 cells/20 min),BRIN-BD11 cells [1]; [8],2.88 ± 0.28 ng/10^6 cells/20 min
same,Insulin release (ng/10^6 cells/20 mins),BRIN-BD11 cells [1]; [4],3.32 ± 0.22 ng/10^6 cells/20 mins
same,Stimulatory effect on insulin secretion in cells cultured overnight with PMA,BRIN-BD11 cells [2],abolished
same,Stimulatory effect on insulin secretion in cells cultured overnight with pertussis toxin,BRIN-BD11 cells [2],abolished
same,Stimulatory effect on insulin secretion in cells cultured overnight with forskolin,BRIN-BD11 cells [2],abolished
"GIFSKLAGKKLKNLLISGLKNVGKEVGMDVVRTGIDIAGCKIKGEC [Peptide 5.4, peptide from Rana saharica matching Esculentin-1B]",Insulin-releasing action in the presence of verapamil (in words),BRIN-BD11 cells [1],not inhibited
same,Insulin-releasing action in cells depolarised with KCl (in words),BRIN-BD11 cells [1],clearly evident
same,Insulin secretion (ng/10^6 cells/20 min),BRIN-BD11 cells [1]; [6],2.89 ± 0.19 ng/10^6 cells/20 min
same,Insulin secretion (ng/10^6 cells/20 min),BRIN-BD11 cells [1]; [7],11.84 ± 0.98ΔΔΔ*** ng/10^6 cells/20 min
same,Insulin secretion (ng/10^6 cells/20 min),BRIN-BD11 cells [1]; [8],2.79 ± 0.10 ng/10^6 cells/20 min
same,Insulin release (ng/10^6 cells/20 mins),BRIN-BD11 cells [1]; [4],3.30 ± 0.22 ng/10^6 cells/20 mins
same,Stimulatory effect on insulin secretion in cells cultured overnight with PMA,BRIN-BD11 cells [2],abolished
same,Stimulatory effect on insulin secretion in cells cultured overnight with pertussis toxin,BRIN-BD11 cells [2],abolished
same,Stimulatory effect on insulin secretion in cells cultured overnight with forskolin,BRIN-BD11 cells [2],abolished
"GILLDKLKNFAKTAGKGVLQSLLNTASCKLSGQC [Peptide 6.5, peptide from Rana saharica matching Brevinin-2EC]",Insulin release (ng/10^6 cells/20 mins),BRIN-BD11 cells [1]; [4],5.93 ± 0.47 ng/10^6 cells/20 mins
"GILSTIKDFAIKAGKGAAKGLLEMASCKLSGQC [Peptide 5.6, 3309.2 Da peptide from Rana saharica, 67% ID to Brevinin-2EB]",Insulin release (ng/10^6 cells/20 mins),BRIN-BD11 cells [1]; [4],2.86 ± 0.37 ng/10^6 cells/20 mins
"IYNAICPCKHCNKCKPGLLAN [Peptide 25, 2300.0 Da peptide from Bombina variegata, no database match]",Insulin release (ng/10^6 cells/20 mins),BRIN-BD11 cells [1],2.39 ± 0.30 ng/10^6 cells/20 mins
"KGAAKGLLEVASCKLSKSC [Peptide 4.22, 1892.6 Da peptide from Rana saharica, 68.4% ID to Rugosin A]",Insulin release (ng/10^6 cells/20 mins),BRIN-BD11 cells [1]; [4],3.47 ± 0.40 ng/10^6 cells/20 mins
MLADVFEKIMGD . . . [Peptide 1.7],Insulin release (ng/10^6 cells/20 mins),BRIN-BD11 cells [1]; [5],4.22 ± 0.48 ng/10^6 cells/20 mins
XXPLAPFFQAVFK . . . [Peptide 1.8],Insulin release (ng/10^6 cells/20 mins),BRIN-BD11 cells [1]; [3],2.48 ± 0.37 ng/10^6 cells/20 mins

# — patent US20080058269A1, “Insulin Releasing Peptides” (priority 2003, published 2008)
